“Also recorded” adds a separate entry of the source. Read-outs that look alike come from different tables or passages of the source. Bounds are passed on as bounds.

Assay [1] has as its system brain-derived VP1/VLP-specific T cell clones. Description: Fine specificity of brain-derived VP1/VLP-specific T cell clones (TCC). In kind it is cell-based, human. As to conditions: for recognition by brain-derived VP1-specific TCC: each TCC tested against 64 15-mer peptides spanning VP1. The procedure:
2.5×10^4 brain-derived PHA-expanded cells were seeded in 96-well U-botton microtiter plates with 1×10^5 autologous irradiated PBMC with or without VP1/VLP protein. After 48 hours of culture, plates were split into mother and daughter plates. Proliferation was measured in daughter plates by methyl-^3H-thymidine incorporation. VP1/VLP-responsive cultures were identified in mother plates, and IL-2 was added every 3-4 days until day 12. T cell clones (TCC) were established from positive cultures by seeding cells from VP1/VLP-responsive wells under limiting dilution conditions at 0.3 and 1 cell/well in 96-well U-botton microtiter plates, and addition of 2×10^5 allogeneic, irradiated PBMC and 1 μg/ml of PHA-L in complete RPMI. After 24 h, 20 U/ml of human recombinant IL-2 were added. VP1/VLP specificity was then confirmed seeding 2.5×10^4 cells from growing colonies with autologous irradiated PBMC with or without VP1/VLP protein for 72 h. Specific cultures were restimulated every two weeks with 1 μg/ml PHA-L, 20 U/ml hrIL-2 and allogeneic irradiated PBMC, and hrIL2 was added every 3-4 days.
Prior data had shown that CD4+ differentiate into certain T helper phenotypes such as Th1 cells (IFN-gamma producers), Th17 cells secreting IL-17, Th2 cells expressing the signature cytokine IL-4, or T regulatory cells based on the expression of certain transcription factors (Zhu et al., 2010). The differentiation into Th1 or Th2 cells is considered mutually exclusive and controlled by the transcription factors T-bet (Th1) and Gata-3 (Th2) (Zhu et al., 2010). […] VP1/VLP-specific TCC were generated as described in material and methods. Initially 21 VP1/VLP-specific single cell-derived cultures were generated by limiting dilution and characterized for TCRV beta expression, functional phenotype and fine specificity (Table 2). This characterization allowed the identification of 11 presumed different TCC. The number of single cell growing cultures corresponding to each TCC gives an idea about the frequency of each TCC in the brain infiltrate (FIG. 3a). TCC-4 was most abundant and represented by 5 colonies emerging from single growing wells, followed by TCC-2 with 3 single cell growing cultures, TCC-1, -8, -9 and -10 with 2 single cell growing cultures and finally TCC-3, -5, -6, -7 and -11 with only 1 single cell growing culture. […] Taking into account both the number of different TCC recognizing a specific peptide and the frequency of each TCC in the brain infiltrate the immunodominant peptides recognized by VP1 specific brain infiltrating TCC were VP134, VP174, VP1319 and VP1335 confirming the fine specificity obtained using the brain-derived bulk cell population (FIG. 3c). […] For three of the immunodominant peptides (VP134, VP1319 and VP1335) we found TCC with both phenotypes. The T helper phenotype of Th1-2 and Th1 TCC was confirmed my measuring IL-4 and IFN-gamma protein secretion by ELISA and by determining the expression of mRNAs of the transcription factors Gata3 and T-bet. Th1-2 TCC (n=5) secreted IL-4 in addition to IFN-gamma, while IL-4 secretion was barely detectable in Th1 TCC (n=6) (FIG. 6c). Cytokine secretion profiles were not due to stimulation with PHA, since the same stable patterns were observed after specific stimulation with VP1/VLP protein by intracellular cytokine staining or ELISA measurements from culture supernatants. Transcription factor expression confirmed the phenotype of the TCC. […]

For assay [2], the system named is brain-derived PHA-expanded cells. Put plainly: Determination of precursor frequency by limiting dilution. In kind it is cell-based, human. Conditions: fraction of T cells responding. The procedure:
Frequencies of VP1/VLP-specific cells were determined by limiting dilution. 20, 200, 2.000 or 20.000 brain-derived PHA-expanded cells were seeded in quadruplicates in 96-well U-botton microtiter plates with 1×10^5 autologous irradiated PBMC with or without VP1/VLP protein. After 72 hours, proliferation was measured by methyl-^3H-thymidine incorporation. Frequencies were calculated as previously described (Taswell, 1981). Observed data were: r, the number of negatively responding cultures or wells of each dose i; n, the total number of wells per dose i, and X, the number of cells in the dose i. Calculated data was: pi=ri/ni, the fraction of negatively responding cultures of each dose i. The frequency was calculated using the following formula: f=−(ln pi)/λi.

Assay [3] has the same test system. The format is cell-based, human.
Assay [4] deals with CSF-derived PHA-expanded cells. The format is cell-based, human.
In assay [5] the test system is peripheral blood-derived PHA-expanded cells. In kind it is cell-based, human.
For a further assay, the system named is unmanipulated PBMC. The format is cell-based, human.
The test system of assay [6] is JCV. Description: Individual healing attempt: therapeutic vaccination of PML patients with VP1, imiquimod and IL-7. In kind it is in vivo, human. As to conditions: patient with idiopathic CD4+ lymphopenia and PML, s.c. VP1 + dermal imiquimod + IL-7. The protocol: An individual healing attempt was performed in a patient with idiopathic CD4+ lymphopenia, a rare constitutive immunodeficiency, who developed PML (referred to as “patient Hamburg” in FIG. 11). The patient had been healthy, i.e. not experienced unusual or frequent infections, throughout their life, and in February 2010 was hospitalized with signs of an encephalitis of unknown origin. They were thoroughly worked up, and a diagnosis of suspected EBV-related encephalitis was made. Following transient improvement during antiviral therapy, they deteriorated further albeit slowly. […] In parallel, the inventors found a low CD4+ T cell count (around 300/microliter) as well as a CD4+/CD8+ ratio of 0.5 or less, which are both consistent with the diagnosis of idiopathic CD4+ lymphopenia. In addition, in vitro experiments in the laboratory documented an absent T cell response to JCV virus VP1 in peripheral blood mononuclear cells and an almost complete absence of naïve CD4+ T cells. Following these observations, the inventors reasoned that the patient probably had developed PML based on a pre-existing and probably genetically determined low CD4+ number, which became further accentuated by entirely physiological immune involution, which sets in and increases above 50 years of age.
The vaccination approach in the above patient included the following steps (for timing of vaccinations and tests see scheme below): Subcutaneous injection with the entire recombinant major capsid protein VP1 (provided by the Life Science Inkubator, Bonn) in combination with a dermally applied TLR7 agonist (imiqimod, Aldara; commercially available) and i.v. recombinant IL-7 (Cytheris). The VP1 protein was administered in the form of virus-like particles (VLP), as the recombinantly expressed VP1 protein associated to such particles under the conditions used herein.
Another individual healing attempt was performed in a patient with breast cancer who received chemotherapy and developed acute myeloid leukaemia (AML) as a side effect of the chemotherapy. The patient then received an autologous and allogeneic hematopoietic stem cell transplant as treatment of the AML and subsequently developed acute graft-versus-host disease (grade IV). […] This case is referred to as “patient Zurich” in FIG. 11. Both patients were treated by recombinant IL-7 (s.c.). 2 days later, the first dose of VP1 (s.c. 1 mg, imiquimod cream on the skin) was administered. 2 days after the first dose of VP1, the second dose of rIL-7 was given.
On day 12 after the first IL-7 dose, the patients received a second vaccination with VP1 s.c. plus imiquimod, and in this case simultaneously rIL-7. At week 6, a third dose of VP1/imiquimod and a fourth dose of rIL-7 were administered. […] A stimulation index of >2 is considered a positive response.

In assay [7] the test system is peripheral blood mononuclear cells (PBMC). Description: 3H-thymidine incorporation assay of patient PBMC with VP1. The format is cell-based, human.
Another assay deals with VP1-specific T-cells. Put plainly: Flow cytometry characterization of VP1-specific T cells of the vaccinated patient. The format is cell-based, human. (In general: Flow cytometry measures light scatter and fluorescence of single cells or particles in a stream.)
In assay [8] the test system is JCV. Conditions: cited from earlier work.
For assay [9] the following is noted: recombinant IL-7 together with antiviral drugs, case of CD4+ lymphopenia; cited from earlier work.

In the case of “23: 15-mer VP1 peptide starting at amino acid 54; likely SEQ ID NO 3 (image row of Table 1) [Peptide 23]”, the “recognition by brain-derived VP1-specific TCC” value (“recognition” below) in [1] is on record as “recognized by TCC-3”.

On to “4: 15-mer JCV Agno peptide starting at amino acid 25; likely SEQ ID NO 1 (image row of Table 1) (AQRILIFLLEFLLDF; JC virus) [Peptide 4]”, for which the “precursor frequency of peptide-specific T cells” value in assay [2] was 1/14492.

Take “VP1143: 15-mer VP1 peptide starting at amino acid 143; likely peptide 43, SEQ ID NO 23 (HFFSVGGEALELQGV; JC virus)”: in assay [1], the “recognition” value is reported as “recognized by TCC-6”.

Take “20: 15-mer VP1 peptide starting at amino acid 34; likely SEQ ID NO 2 (image row of Table 1) (VDSITEVECFLTPEM; JC virus) [Peptide 20]”: the “stimulation index (SI), individual JCV peptides” value in assay [3] (brain-derived PHA-expanded cells, individual peptides at 10 μM, 72 hours, listed as VP134) is listed as “strongest response”. Besides, the “immunodominance among VP1 specific brain infiltrating TCC” value in assay [1] (by number of TCC recognizing the peptide and frequency of each TCC) was “immunodominant”. The “recognition” value in [1] was “recognized by TCC-1 and -2”.

For the molecule “VP191: 15-mer VP1 peptide starting at amino acid 91; likely peptide 31, SEQ ID NO 11 (LNEDLTCGNILMWEA; JC virus)”, the “recognition” value in assay [1] is “recognized by TCC-5”.

As for “Tetanus toxoid [TTx, reference compound]”, the results for the “stimulation index (SI)” value in assay [3], in assay [4] and in [5] were “no response”, 14 and 6.5, respectively. The proliferative response result in the assay on unmanipulated PBMC is given as “significantly stronger response”.

Turning to “VP1/VLP: recombinant JCV major capsid protein VP1 forming virus-like particles; VP1 and VLP used interchangeably”, the “stimulation index (SI)” value in assay [3] (brain-derived PHA-expanded T cells, VP1/VLP 2 μg/ml, TTx 5 μg/ml, 72 hours) is listed as above 600. For the same molecule, the “stimulation index (SI)” value in [4] (CSF-derived PHA-expanded cells, VP1/VLP 2 μg/ml, TTx 5 μg/ml, 72 hours) worked out at 7. For the same molecule, in [5] (PHA-expanded PBMC, VP1/VLP 2 μg/ml, TTx 5 μg/ml, 72 hours), the “stimulation index (SI)” value is “negative”. In the assay with JCV [6], the “CSF cell counts after vaccination” value is given as “slightly elevated CSF cell counts” and the “JCV viral load after vaccination” value came out at 0. In the assay with JCV [6] (listed as VP1), the “brain MRI imaging after vaccination” value is reported as “slight contrast enhancement around the PML lesions” and the “clinical course after vaccination” value is “clinical improvement with slight delay; also recorded: clinically improving”. Further, the “immune response against JCV after vaccination (stimulation index, >2 positive)” value in assay [7] (patient Hamburg and patient Zurich, PBMC 1×10e5 cells/well with VP1/VLP, 7 days, VP1 s.c. 1 mg + imiquimod + rIL-7) is on record as “positive immune response against JCV”. Further, the “T cell response to JCV VP1 in PBMC before vaccination” value in assay [7] (patient with idiopathic CD4+ lymphopenia and PML, before vaccination) is on record as “absent”. Besides, the “in vitro proliferative response against JCV VP1 after vaccination” value in assay [7] (patient with idiopathic CD4+ lymphopenia and PML, s.c. VP1 + dermal imiquimod + IL-7) is on record as “in vitro proliferative response against JCV VP1 after only two vaccinations”. Moreover, the “cell type proliferating after VP1 stimulus” value in the assay on VP1-specific T-cells (6 weeks after immunization) is on record as “Only CD4+ cells proliferate”. Further, in the assay on VP1-specific T-cells (antigen day 0, restimulated day 6, intracellular cytokine staining, FACS), the “cytokine expression of CD4+ T cells after VP1 stimulation” value is given as “produce IFN-gamma after VP1 stimulation”. Also, the “immune response after vaccination with Freund's Complete Adjuvant (FCA)” value in the assay on JCV [8] (with FCA) was “induces an immune response”. Further, the “immune response after vaccination without adjuvant” value in the assay on JCV [8] (without adjuvant) is on record as “not immunogenic”.

B1: recombinant IL-7: recombinant IL-7 (Cytheris) (protein, UniProt P13232 26-177, looked up)
Interleukin-7: DCDIEGKDGKQYESVLMVSIDQLLDSMKEIGSNCLNNEFNFFKRHICDANKEGMFLFRAARKLRQFLKMNSTGDFDLHLLKVSEGTTILLNCTGQVKGRKPAALGEAQPTKSLEENKSLKEQKKLNDLCFLKRLLQEIKTCWNKILMGTKEH
Consider B1, for which the clinical outcome in assay [9] is given as “substantial improvement”.
